# Source: PMC10043390, “Novel 2-substituted-5-(4-chloro-2-phenoxy)phenyl-1,3,4-oxadiazole derivatives, ligands of GABAA/benzodiazepine receptor complex: Design, synthesis, radioligand binding assay, and pharmacological evaluation” (EXCLI Journal, 2023)
# Several values for one entry are separate records, joined by “and”; a condition that tells them apart may be missing. Equal values may be shown once. Read-outs that look alike come from different tables or passages of the source.
# Experiments:
# [1] = target: benzodiazepine receptor of rat brains; assay: Radioligand receptor binding assay ([3H]-flumazenil competitive binding); details: for Ki: [3H]-flumazenil competitive binding; for Specific binding of [3H]flumazenil: mean ± SEM, n=3; for IC50: reduction of specific binding of [3H]-flumazenil by 50 %, triplicates, 30 °C, 35 min
# Description: All of the binding assays were performed in triplicates in a total volume of 500 µL at 30 °C for 35 min (Ahmadi et al., 2013[1]).
# (§1) Kd and Bmax in radioligand binding assay were calculated by non-linear regression analysis of the saturation and competitive curve data (Program Prism, Graph Pad, San Diego, CA). The IC50s of the novel compounds in binding studies were determined using […]. […] In PTZ and MES tests, the data were presented as a mean with 95% confidence intervals. In the rest of the pharmacological evaluations, one-way ANOVA with Tukey's HSD post-hoc test was used. All the data were presented as mean ± SEM and P<0.05 was considered statistically significant.
# male NMRI albino mice [2] = assay: PTZ-induced lethal convulsion test; type: in vivo
# Description: (§2) To assess the anticonvulsant activity of the novel compound 6a, we used PTZ-induced convulsion and MES tests (Guerrini et al., 2008[10]; Lankau et al., 2007[13]). In both models, the ability of the novel compound to protect mice against induced seizures was evaluated. Animals were closely observed for 30 minutes after injection of the lethal dose of PTZ (100 mg/kg) and the number of dead mice after convulsion was reported. In the MES test, each subject was observed closely and the incidence of hind limb tonic extension (HLTE) in the subjects after application of MES (60 Hz, 37.2 mA, and 0.25 s) was reported.
# as §1
# male NMRI albino mice [3] = assay: Maximal electroshock (MES) test; type: in vivo
# Description: as §2, §1
# male NMRI albino mice [4] = assay: Pentobarbital-induced sleep test; type: in vivo; details: for Sleeping time: pentobarbital 40 mg/kg i.p., raw data of single animals
# Description: The duration of the loss of the righting reflex was considered as the sleeping time. […] For prevention of hypothermia during the experiment, animals were placed on an electric blanket (Khoramjouy et al., 2021[11]).
# male NMRI albino mice [5] = assay: Elevated plus-maze test; type: in vivo; details: for % duration in close arms / % duration in open arms: raw data of single animals
# Description: The elevated plus-maze device was made up of Plexiglas, and it contained two open arms (30×5×0.5 cm) and two closed arms (30×5×35 cm) with an open roof. They were arranged so that the open arms were opposite to […]. The entire maze was elevated at a height of 1 meter. The mice were individually placed in the central square of the maze (5×5 cm) where all four arms were connected together after 30 minutes of intraperitoneal (i.p) administration of the test compounds. The time spent in the open and closed arms was recorded.
# male NMRI albino mice [6] = details: for latency of entrance to the dark compartment: testing day, raw data of single animals
# Description: For the mice to get adapted to the lab environment, we transferred them to the lab 60 minutes before the tests started. Mice were randomly selected for all the experimental groups and each subject was tested only once for the pharmacological evaluations.
# Distilled water was used as a solvent (vehicle) of PTZ and pentobarbital. Both, PTZ and pentobarbital were injected i.p. 5 ml/kg.
# The passive avoidance cage (Malek Teb Co., Tehran) consists of two different compartments separated by a guillotine door. One of the compartments was black and dark while the other one was white and lighted. For the training trial, each mouse was placed in the white and light compartment and facing away from the guillotine door for 30 seconds. Next, the guillotine door was opened and the mouse was able to freely enter the black and dark compartment. When the mouse entered the black and dark compartment with four paws, it received an electric unpleasant stimulus (0.5 mA, 2 seconds) through the grid floor. On the testing day (after 24 hours), we placed the mouse in the lighted compartment and there was no electrical stimulus. We reported the latency to enter the black and dark compartment while the guillotine door was open.
# [7] = doses of 5 and 10 mg/kg, over 10 minutes
structure (smiles),measurement,setting,value
"O=C(NC1CCCCC1)c1nnc(-c2ccc(Cl)cc2Oc2ccccc2)o1 [6f, 5-(4-chloro-2-phenoxyphenyl)-N-cyclohexyl-1,3,4-oxadiazole-2-carboxamide]",Ki,[1],1.53 nM
same,Specific binding of [3H]flumazenil,[1]; log[L] -7.0,0.2133±0.0272 cpm
same,Specific binding of [3H]flumazenil,[1]; log[L] -8.0,0.3533±0.0189 cpm
same,Specific binding of [3H]flumazenil,[1]; log[L] -8.5,0.4000±0.0118 cpm
same,Specific binding of [3H]flumazenil,[1]; log[L] -9.0,0.4533±0.0148 cpm
same,Specific binding of [3H]flumazenil,[1]; log[L] -9.5,0.5500±0.0156 cpm
same,Specific binding of [3H]flumazenil,[1]; log[L] -10.0,0.6133±0.0296 cpm
same,Specific binding of [3H]flumazenil,[1]; log[L] -11.0,0.5933±0.0207 cpm
same,IC50,[1],2.51 ± 0.13 nM
same,melting point,,132 to 133 °C
"O=C(Nc1ccccc1)c1nnc(-c2ccc(Cl)cc2Oc2ccccc2)o1 [6a, 5-(4-chloro-2-phenoxyphenyl)-N-phenyl-1,3,4-oxadiazole-2-carboxamide]",Ki,[1],0.44 nM
same,Specific binding of [3H]flumazenil,[1]; log[L] -7.0,0.3167±0.0378 cpm
same,Specific binding of [3H]flumazenil,[1]; log[L] -8.0,0.4000±0.0412 cpm
same,Specific binding of [3H]flumazenil,[1]; log[L] -8.5,0.4200±0.0102 cpm
same,Specific binding of [3H]flumazenil,[1]; log[L] -9.0,0.4667±0.0090 cpm
same,Specific binding of [3H]flumazenil,[1]; log[L] -9.5,0.5100±0.0156 cpm
same,Specific binding of [3H]flumazenil,[1]; log[L] -10.0,0.5800±0.0156 cpm
same,Specific binding of [3H]flumazenil,[1]; log[L] -11.0,0.6267±0.0034 cpm
same,IC50,[1],0.73 ± 0.17 nM
same,ED50,"male NMRI albino mice [2]; Mus musculus, i.p. 30 min before PTZ 100 mg/kg, mean with 95% confidence intervals",72 mg/kg
same,anticonvulsant activity in presence of flumazenil,"male NMRI albino mice [2]; PTZ test, flumazenil 10 mg/kg",can antagonize the anticonvulsant activity
same,anticonvulsant activity in presence of flumazenil,"male NMRI albino mice [3]; MES test, flumazenil 10 mg/kg",can antagonize the anticonvulsant activity
same,ED50,"male NMRI albino mice [3]; Mus musculus, ip, i.p. 30 min before MES (60 Hz, 37.2 mA, 0.25 s), HLTE, mean with 95% confidence intervals",27.8 mg/kg
same,Sleeping time,male NMRI albino mice [4]; 1.25 mg/kg i.p.,26 min and 38 min and 39 min and 46 min and 28 min and 20 min and 24 min and 32 min
same,Sleeping time,male NMRI albino mice [4]; 5 mg/kg i.p.,48 minute and 44 minute and 50 minute (2×) and 43 minute and 57 minute and 40 minute and 56 minute
same,Sleeping time,male NMRI albino mice [4]; 10 mg/kg + Flumazenil (10 mg/kg),43 minute (2×) and 34 minute (2×) and 27 minute (2×) and 32 minute and 29 minute
same,Sleeping time,male NMRI albino mice [4]; 10 mg/kg i.p.,53 minute and 64 minute and 47 minute (2×) and 43 minute and 40 minute and 55 minute and 49 minute
same,effect on sleeping time,"male NMRI albino mice [4]; dose of 10 and 5 mg/kg, P<0.001",increased the sleeping time
same,hypnotic effect in presence of flumazenil,"male NMRI albino mice [4]; with flumazenil 10 mg/kg, P<0.001",prevented by flumazenil
same,% duration in close arms,male NMRI albino mice [5]; 1.25 mg/kg i.p.,65.00% (2×) and 67.00% and 56.00% and 60.00% and 53.00% and 64.00% and 59.00%
same,% duration in open arms,male NMRI albino mice [5]; 1.25 mg/kg i.p.,35.00% (2×) and 33.00% and 44.00% and 40.00% and 47.00% and 36.21% and 41.00%
same,% duration in close arms,male NMRI albino mice [5]; 5 mg/kg i.p.,48.50% (2×) and 44.54% and 44.40% and 43.48% and 38.16% and 47.65% and 51.65%
same,% duration in open arms,male NMRI albino mice [5]; 5 mg/kg i.p.,51.49% (2×) and 55.45% and 55.59% and 56.51% and 61.83% and 52.34% and 48.34%
same,% duration in close arms,male NMRI albino mice [5]; 10 mg/kg i.p.,42.44% and 46.28% and 47.65% and 43.17% and 37.57% and 45.37% and 41.04% and 26.78%
same,% duration in open arms,male NMRI albino mice [5]; 10 mg/kg i.p.,57.55% and 53.71% and 52.34% and 56.82% and 62.42% and 54.62% and 58.96% and 73.22%
same,effect on close arm time (CAT),male NMRI albino mice [5]; [7],decrease the close arm time
same,effect on open arm time (OAT),male NMRI albino mice [5]; [7],increase the open arm time
same,latency of entrance to the dark compartment,male NMRI albino mice [6]; 1.25 mg/kg i.p.,320 second and 380 second and 393 second and 467 second and 480 second (2×) and 420 second (2×)
same,latency of entrance to the dark compartment,male NMRI albino mice [6]; 5 mg/kg i.p.,480 second (2×) and 440 second and 344 second and 343 second and 380 second and 407 second and 251 second
same,latency of entrance to the dark compartment,male NMRI albino mice [6]; 10 mg/kg i.p.,320 s and 460 s and 407 s and 230 s and 400 s and 420 s and 480 s and 326 s
same,effect on latency to enter the dark compartment,"male NMRI albino mice [6]; doses of 1.25, 2.5, 5, and 10 mg/kg",did not show any significant effect
"O=C(NN1CCOCC1)c1nnc(-c2ccc(Cl)cc2Oc2ccccc2)o1 [6e, 5-(4-chloro-2-phenoxyphenyl)-N-morpholino-1,3,4-oxadiazole-2-carboxamide]",Ki,[1],0.95 nM
same,Specific binding of [3H]flumazenil,[1]; log[L] -7.0,0.2900±0.0059 cpm
same,Specific binding of [3H]flumazenil,[1]; log[L] -8.0,0.3067±0.0090 cpm
same,Specific binding of [3H]flumazenil,[1]; log[L] -8.5,0.3600±0.0060 cpm
same,Specific binding of [3H]flumazenil,[1]; log[L] -9.0,0.5867±0.0090 cpm
same,Specific binding of [3H]flumazenil,[1]; log[L] -9.5,0.6033±0.0189 cpm
same,Specific binding of [3H]flumazenil,[1]; log[L] -10.0,0.6667±0.0148 cpm
same,Specific binding of [3H]flumazenil,[1]; log[L] -11.0,0.6967±0.0148 cpm
same,IC50,[1],1.55 ± 0.1 nM
same,melting point,,159 to 161 °C
"Cc1cccc(NC(=O)c2nnc(-c3ccc(Cl)cc3Oc3ccccc3)o2)n1 [6c, 5-(4-chloro-2-phenoxyphenyl)-N-(6-methylpyridin-2-yl)-1,3,4-oxadiazole-2-carboxamide]",Ki,[1],0.76 nM
same,Specific binding of [3H]flumazenil,[1]; log[L] -7.0,0.3000±0.0059 cpm
same,Specific binding of [3H]flumazenil,[1]; log[L] -8.0,0.3100±0.0102 cpm
same,Specific binding of [3H]flumazenil,[1]; log[L] -8.5,0.3767±0.0090 cpm
same,Specific binding of [3H]flumazenil,[1]; log[L] -9.0,0.4467±0.0207 cpm
same,Specific binding of [3H]flumazenil,[1]; log[L] -9.5,0.5367±0.0122 cpm
same,Specific binding of [3H]flumazenil,[1]; log[L] -10.0,0.5700±0.0156 cpm
same,Specific binding of [3H]flumazenil,[1]; log[L] -11.0,0.5733±0.0207 cpm
same,IC50,[1],1.25 ± 0.09 nM
same,melting point,,183.2 to 184.3 °C
"O=C(Nc1ccccn1)c1nnc(-c2ccc(Cl)cc2Oc2ccccc2)o1 [6b, 5-(4-chloro-2-phenoxyphenyl)-N-(pyridin-2-yl)-1,3,4-oxadiazole-2-carboxamide]",Ki,[1],2.35 nM
same,Specific binding of [3H]flumazenil,[1]; log[L] -7.0,0.2333±0.0148 cpm
same,Specific binding of [3H]flumazenil,[1]; log[L] -8.0,0.3733±0.0223 cpm
same,Specific binding of [3H]flumazenil,[1]; log[L] -8.5,0.4267±0.0090 cpm
same,Specific binding of [3H]flumazenil,[1]; log[L] -9.0,0.5233±0.0180 cpm
same,Specific binding of [3H]flumazenil,[1]; log[L] -9.5,0.5467±0.0068 cpm
same,Specific binding of [3H]flumazenil,[1]; log[L] -10.0,0.5900±0.0118 cpm
same,Specific binding of [3H]flumazenil,[1]; log[L] -11.0,0.6433±0.0122 cpm
same,IC50,[1],3.84 ± 0.1 nM
same,melting point,,198 to 200 °C
"Cc1ccnc(NC(=O)c2nnc(-c3ccc(Cl)cc3Oc3ccccc3)o2)c1 [6d, 5-(4-chloro-2-phenoxyphenyl)-N-(4-methylpyridin-2-yl)-1,3,4-oxadiazole-2-carboxamide]",Ki,[1],0.88 nM
same,Specific binding of [3H]flumazenil,[1]; log[L] -7.0,0.3000±0.0059 cpm
same,Specific binding of [3H]flumazenil,[1]; log[L] -8.0,0.3100±0.0102 cpm
same,Specific binding of [3H]flumazenil,[1]; log[L] -8.5,0.3767±0.0090 cpm
same,Specific binding of [3H]flumazenil,[1]; log[L] -9.0,0.4467±0.0207 cpm
same,Specific binding of [3H]flumazenil,[1]; log[L] -9.5,0.5367±0.0122 cpm
same,Specific binding of [3H]flumazenil,[1]; log[L] -10.0,0.5700±0.0156 cpm
same,Specific binding of [3H]flumazenil,[1]; log[L] -11.0,0.5733±0.0207 cpm
same,IC50,[1],1.44 ± 0.09 nM
same,melting point,,188.2 to 189.1 °C
